Reference: US9206246B2, “Heparin/heparan sulfate-dependent inhibitors of activated protein C and uses thereof in treating hemophilic disorders” (Academia Sinica, priority 2012, dated 2015)
“Also recorded” adds a separate entry of the source.

Key:
[1] = target: protein C zymogen (PC) (Homo sapiens, UniProt P04070); assay: Surface plasmon resonance, immobilized protein C zymogen; format: binding; details: DrKIn-I 31.25, 62.5, 125 nM
Experimental: (§1) A: 70 μg of DrKIn-I in 0.1 ml equilibrating buffer (20 mM Tris-HCl, pH 8.0) was applied to a 5 ml HiTrap Heparin column and eluted with a 50 ml gradient from 0.0-1.0 M NaCl. The salt concentration corresponding to the elution peak was determined to be 0.95 M. B, Binding of DrKIn-I (0.78, 1.56, 2.34, 3.13, 4.68 and 6.25 nM) to immobilized APC was assessed in buffer containing 10 mM HEPES, 0.15 M NaCl, 3 mM EDTA and 0.05% P20 at a flow rate of 60 μl/min at 25° C. […] The thin lines represent the global fit to the response data. […] Results shown are means±SD of three experiments. Representative binding traces are shown.
Biacore T200 (GE Healthcare) was used for analysis. APC or PC dissolved in 10 mM acetate buffer (pH 5.0) was immobilized on a CM5 sensor chip to a response unit (RU) of 1000 with an amine coupling kit. Associations and dissociations of DrKIn-I were performed in 10 mM HEPES (N-2-hydroxyethylpiperazine-N′-2-ethanesulfonic acid; pH 7.4), 150 mM NaCl, 3 mM EDTA (ethylenediaminetetraacetic acid) and 0.05% P20 with a flow rate of 60 μl/min. The sensor surface was regenerated with 90 μl of 2 M MgCl2 and the signals obtained were subtracted by that obtained from the reference channel that had not been coated with ligands. Binding kinetics were determined by global fitting to 1:1 Langmuir binding model using the Biaevaluation software (GE Healthcare).

[2] = test system: endogenously generated APC in normal plasma; assay: Thrombin generation assay in normal plasma; format: biochemical; details: 200 nM DrKIn-I, 100 nM TM, 2 μg/ml heparan sulfate
Experimental: (§2) Thrombin generation in normal (A) and protein C-deficient (B) plasma. Experiments were performed in the presence of heparan sulfate (2 μg/ml). Solid lines represent thrombin generation in the presence of 100 nM thrombomodulin (TM) and varying concentrations of DrKIn-I (●, 0 nM; ▪, 40 nM; ▴, 80 nM; ◯, 200 nM). Dashed lines represent thrombin generation in the absence of TM and DrKIn-I.
(§3) Briefly, 80 μl of either normal plasma, protein C-deficient plasma, FVIII-deficient plasma or FIX deficient plasma containing 2 μM corn trypsin inhibitor, 2 μg/ml heparan sulfate (four disaccharide units long), 30 μM DOPC/DOPS/DOPE (60:20:20) and 100 nM recombinant TM was incubated with 20 μl of 500-fold diluted TF solution (Innovin; Dade Behring) in the absence or presence of the indicated concentrations of DrKIn-I. Following incubation for 3 minutes at 37° C., thrombin generation was initiated by the dispensation of 20 μl of 2.5 mM fluorogenic substrate (Z-Gly-Gly-Arg-AMC.HCl) dissolved in 0.15 M NaCl, 60 mg/ml BSA and 100 mM CaCl2. Measurements were taken at 1 minute intervals on a SpectraMax M2^e Microplate Reader using an excitation wavelength of 360 nm and an emission wavelength of 460 nm. In some assays, experiments were performed in the absence of thrombomodulin. Results were evaluated using the Technothrombin TGA software (Technoclone).

[3] = test system: plasmin; assay: Euglobulin clot lysis assay; format: biochemical
[4] = target: T1, factor Xa (FXa) (Homo sapiens, UniProt P00742); assay: Selectivity profile, amidolytic activity of FXa; format: biochemical
T1 construct: factor Xa (FXa); purchased Haematologic Technologies
Experimental: (§4) In each of these experiments, the molar ratio of protease active site to inhibitor was 1:1. The final concentrations of these proteases and their respective substrates were as follows: FXIIa (20 nM)/S-2302 (0.2 mM), FXIa (2.5 nM)/S-2366 (0.2 mM), FXa (10 nM)/S-2222 (1.3 mM), FIXa (200 nM)/Spectrozyme FIXa (1.3 mM), FVIIa (100 nM)/S-2288 (1.3 mM), thrombin (5 nM)/T-1637 (0.2 mM), kallikrein (5 nM)/S-2302 (0.2 mM), plasmin (20 nM)/S-2251 (0.2 mM), tPA (80 nM)/Spectrozyme tPA (0.2 mM), uPA (100 nM)/S-2288 (1.3 mM), APC (10 nM)/Spectrozyme PCa (0.2 mM) and trypsin (5 nM)/S-2222 (0.2 mM). Results shown are means±SD of at least three experiments.
(§5) DrKIn-I, with or without heparin, was screened for its inhibitory activity against trypsin and also against serine proteases in the coagulation cascade (FXIIa, FXIa, FXa, FIXa, FVIIa, thrombin and kallikrein) and in the fibrinolytic system (plasmin, tPA and uPA). The amidolytic activities of these proteases were determined in the presence or absence of equimolar concentrations of DrKIn-I using their respective chromogenic substrates.

[5] = test system: APC in normal plasma; assay: APTT-based APC resistance assay in normal plasma; format: biochemical; details: 200 nM DrKIn-I, 40 nM APC, 2 μg/ml heparan sulfate
Experimental: APTT-based clotting times were measured in normal, FVIII-deficient and FIX-deficient plasma containing 2 μg/ml heparan sulfate in the presence or absence of 40 nM APC and the indicated concentrations of DrKIn-I. Results shown are means±S.D. of at least three experiments.
50 μl of normal plasma, FVIII-deficient plasma or FIX-deficient plasma supplemented with 2 μg/ml heparan sulfate (four disaccharide units long) was exposed to APC (40 nM) and varying concentrations of DrKIn-I (50-200 nM). 50 μl of activated partial thromboplastin (APTT) reagent (HYPHEN Biomed) was added and incubated for 1 minute at 37° C. Finally, clotting was initiated by adding 50 μl of 20 mM CaCl2. Coagulation times, which reflect the activities of APC, were recorded on a coagulometer (Hemostasis Analyzer KC-1; Sigma Diagnostics).

[6] = Heparin binding assay (HiTrap Heparin column, NaCl gradient); details: 0.0-1.0 M NaCl gradient, 20 mM Tris-HCl pH 8.0
Experimental: as §1

[7] = test system: protein C-deficient plasma; assay: Thrombin generation assay in protein C-deficient plasma; format: biochemical; details: TM-containing protein C-deficient plasma, heparan sulfate
Experimental: as §2, §3

[8] = target: T2, FXIa (Homo sapiens, UniProt P03951); assay: Selectivity profile and Ki, amidolytic activity of FXIa; format: biochemical
T2 construct: factor XIa (FXIa); purchased Haematologic Technologies
Experimental: as §4, §5

T2 sequence (P03951 388-625 limits assumed): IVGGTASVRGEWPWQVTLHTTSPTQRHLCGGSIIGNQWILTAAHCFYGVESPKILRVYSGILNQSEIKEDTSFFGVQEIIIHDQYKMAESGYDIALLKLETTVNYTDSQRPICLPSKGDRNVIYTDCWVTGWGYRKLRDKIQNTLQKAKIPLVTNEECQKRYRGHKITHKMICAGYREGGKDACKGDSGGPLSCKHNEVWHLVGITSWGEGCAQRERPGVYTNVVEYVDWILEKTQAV
T2 sequence (P03951 19-387 limits assumed): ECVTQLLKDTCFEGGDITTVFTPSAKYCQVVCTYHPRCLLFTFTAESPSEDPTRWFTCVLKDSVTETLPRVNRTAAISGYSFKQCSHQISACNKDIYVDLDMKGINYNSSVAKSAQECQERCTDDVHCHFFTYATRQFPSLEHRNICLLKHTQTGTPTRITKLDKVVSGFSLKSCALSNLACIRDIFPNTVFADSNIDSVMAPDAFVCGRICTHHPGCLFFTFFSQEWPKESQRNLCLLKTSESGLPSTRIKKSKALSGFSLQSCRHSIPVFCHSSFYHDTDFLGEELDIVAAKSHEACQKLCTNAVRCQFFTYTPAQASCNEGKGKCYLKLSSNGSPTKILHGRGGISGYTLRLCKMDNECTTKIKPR
T1 sequence (P00742 235-488 limits assumed): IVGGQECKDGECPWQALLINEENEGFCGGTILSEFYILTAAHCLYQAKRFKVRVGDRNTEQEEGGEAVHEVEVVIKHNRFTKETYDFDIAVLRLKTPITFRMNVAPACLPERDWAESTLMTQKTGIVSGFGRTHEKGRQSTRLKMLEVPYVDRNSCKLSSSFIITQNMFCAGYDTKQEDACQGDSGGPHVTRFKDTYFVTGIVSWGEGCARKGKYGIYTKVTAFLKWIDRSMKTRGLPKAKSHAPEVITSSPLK
T1 sequence (P00742 41-179 limits assumed): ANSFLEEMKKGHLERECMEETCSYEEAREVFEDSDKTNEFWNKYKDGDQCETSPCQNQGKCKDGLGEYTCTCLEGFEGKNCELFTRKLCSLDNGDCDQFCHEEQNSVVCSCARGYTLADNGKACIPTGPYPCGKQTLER

## DrKIn-I (CGGNDNNFETRKKCRQTCGAPRKGRPT)
[1]
  binding to immobilized protein C zymogen: No binding was observed
[2]
  thrombin generation: thrombin generation reached that observed in the absence of APC activity
[3]; 20 nM inhibitor
  prolongation of euglobulin clot lysis time: failed to prolong the clot lysis time
[3]; 100 nM inhibitor
  prolongation of euglobulin clot lysis time: approximately an hour
[4]
  inhibitory activity against factor Xa: no inhibitory activities
[5]
  clotting time: almost completely restored the clotting time to that observed in the absence of APC
[6]
  NaCl concentration at elution from heparin column: 0.95 M
[7]
  thrombin generation profile (APC-independent): did not alter the thrombin generation profile; also recorded: negligible effects
[8]; equimolar DrKIn-I and enzyme active site, FXIa 2.5 nM
  inhibition of FXIa: ~40%
[8]; in the presence of heparin, read-out: Ki for FXIa inhibition
  Ki: 1.33 ± 0.08 nM
